Measured values: patent publication US5166379A, “Synthesis of compounds with biological activity, and methods of use” (Harbor Branch Oceanographic Institution, Inc., priority 1990, dated 1992)
Converted amounts (≈) assume the structure as drawn. Like-named read-outs stand apart in the source and are kept apart here.

Columns and labels:
[1] = test system: lymphoid cells (murine BALB/c splenocytes); assay: Lymphocyte Viability Assay (LCV); format: cell-based
Procedure: (§1) II. Lymphocyte Viability Assay
(§2) 1. Compounds were similarly tested in parallel with the MLR to determine their toxic effects on lymphoid cells using the lymphocyte viability assay (LCV).
(§3) 2. Serial, log10 dilutions of the pure compound were made in absolute ethanol, and 10 μl of each dilution was added to wells of microtiter test plates, and allowed to dry.
(§4) 3. Murine splenocyte suspensions were prepared from BALB/c mice. […] The cell concentrations were adjusted to 2.5×10^6 cells/ml.
(§5) 4. A volume of 0.2 ml of the splenocyte suspension was added to replicate test wells. Positive control wells received splenocyte suspensions in the absence of the test compounds.
(§6) 5. Plates were incubated at 37° C. for 86 hours. At the end of the incubation period, a volume of 75 μl of a 2.0 mg/ml solution of MTT was added to each well, and the plates were returned to the incubator for an additional 5 hours.
(§7) 6. The supernatants from each microwell were then removed, and a volume of 200 μl of isopropanol was added and the contents mixed.
(§8) 7. Values were obtained by comparing the optical densities (determined at 570 and 650 nm) of wells containing the test compounds with those of wells containing cells and medium only (positive control). The results are expressed as a percentage of the positive control.
(§9) 8. Replicate counts were averaged, and the data reported as a percentage of the positive control. An LCV value of less than 60% of the positive control is an indication of cytotoxicity of the test compounds for lymphoid cells.

P388 cells = assay: Antiproliferative effects against P388 cells (antitumor, MTT); format: cell-based; conditions: for P388 IC50: 48 hour exposure; for IC50: Mus musculus, P388, 48 hour exposure
Procedure: IV. Antitumor Methodology
To assess the antiproliferative effects against P388 cells, 200 μl cultures (96-well tissue culture plates, Nunc, Denmark) were established at 1×10^5 cells/ml in drug-free medium or medium containing the pure compounds/crude extracts at a final dilution or 1:500 and at various concentrations. Solvent for all dilutions was methanol, which was removed from plates under vacuum. All experimental cultures were initiated in media containing Gentamicin sulfate (50 μg/ml; Schering Corporation, Kenilworth, NJ).
To quantitate the effects of pure compounds/crude extracts on cell proliferation, 75 μl of warm growth medium containing 5 mg/ml MTT was added to each well, cultures were returned to the incubator, and were left undisturbed for 90 minutes. To spectrophotometrically quantitate formation of reduced formazan, plates were centrifuged (900×g, 5 minutes), culture fluids removed by aspiration, and 200 μl of acidified isopropanol (2 ml concentrated HCl/liter isopropanol) added per well. The absorbance of the resulting solutions were measured at 570 nm with a plate reader (MR700 Microplate Reader, Dynatech Laboratories, Chantilly, VA).

[2] = test system: murine splenocyte suspensions (BALB/c and C57BL/6J mice); assay: Mixed Lymphocyte Reaction (MLR); format: cell-based; conditions: for activity at 0.05 µg/mL / activity at 0.2 µg/mL / activity at 0.8 µg/mL / activity at 3.1 µg/mL / activity at 12.5 µg/mL / activity at 50 µg/mL: Mus musculus, Splenocyte, read-out: % MLR (percentage of positive control)
Procedure: I. Mixed Lymphocyte Reaction
1. Murine splenocyte suspensions were prepared separately from BALB/c and C57BL/6J mice. […] The cell concentrations were adjusted to 2.5×10^6 cells/ml. Aliquots of each cell population were removed to separate tubes, and the remaining two cell suspensions combined to one tube.
as §3
3. A volume of 0.2 ml of the combined splenocyte suspensions was added to triplicate test wells. Positive control wells received combined splenocyte suspensions in the absence of the test compounds. Negative control wells consisted of separate (not mixed) splenocyte suspensions cultured in the absence of the test compounds.
4. Plates were incubated in 5% CO2 at 37° C. for 86 hours.
5. A volume of 0.05 ml of ^3 H-thymidine (20 μCi/ml) was added to each well, and the plates were incubated in 5% CO2 at 37° C. for an additional 5 hours.
6. The contents of each well of the microtiter plates were harvested onto glass fiber filter strips, and the resulting filter discs placed in scintillation vials to which 2.0 ml of scintillation fluid was added.
7. The amount of incorporated ^3 H-thymidine was determined by counting the vials in a liquid scintillation counter.
8. Triplicate counts were averaged, and the data reported as a percentage of the positive control.

[3] = Lymphocyte Viability Assay (LCV); format: cell-based, murine; conditions: mouse, splenocytes, read-out: % LCV (percentage of positive control)
Procedure: as §1, §2, §3, §4, §5, §6, §7, §8, §9

Row | IC50 (P388 cells) [µg/mL] | SMILES | % LCV (percentage of positive control) ([1]; 0.05 μg/ml) [%] | % LCV (percentage of positive control) ([1]; 0.2 μg/ml) [%] | % LCV (percentage of positive control) ([1]; 0.8 μg/ml) [%] | % LCV (percentage of positive control) ([1]; 3.1 μg/ml) [%] | % LCV (percentage of positive control) ([1]; 12.5 μg/ml) [%] | % LCV (percentage of positive control) ([1]; 50 μg/ml) [%] | P388 IC50 (P388 cells) [µg/mL] | viability ([3]; 0.05 μg/ml) [%] | viability ([3]; 0.2 μg/ml) [%] | viability ([3]; 0.8 μg/ml) [%] | viability ([3]; 3.1 μg/ml) [%] | viability ([3]; 12.5 μg/ml) [%] | viability ([3]; 50 μg/ml) [%] | activity at 0.05 µg/mL ([2]; 0.05 μg/ml) [%] | activity at 0.2 µg/mL ([2]; 0.2 μg/ml) [%] | activity at 0.8 µg/mL ([2]; 0.8 μg/ml) [%] | activity at 3.1 µg/mL ([2]; 3.1 μg/ml) [%] | activity at 12.5 µg/mL ([2]; 12.5 μg/ml) [%] | activity at 50 µg/mL ([2]; 50 μg/ml) [%] | further results
1 |  | C#CC(O)C=CCCCCC (stereo not shown) [CH3 (CH2)4 CH= CH--CHOH--C≡CH] | 109 | 121 | 119 | 89 | 65 | 7 | 74.0 |  |  |  |  |  |  |  |  |  |  |  |  | % MLR (percentage of positive control) ([2]; 0.05 μg/ml): 112%; % MLR (percentage of positive control) ([2]; 0.2 μg/ml): 14%; % MLR (percentage of positive control) ([2]; 0.8 μg/ml): 82%; % MLR (percentage of positive control) ([2]; 3.1 μg/ml): 0%; % MLR (percentage of positive control) ([2]; 12.5 μg/ml): 0%; % MLR (percentage of positive control) ([2]; 50 μg/ml): 0%
2 |  | C#CC(O)C=CCCCCCCCCC (stereo not shown) [CH3 (CH2)8 CH=CH--CHOH--C≡CH] | 35 | 44 | 30 | 26 | 5 | 0 | 27.0 |  |  |  |  |  |  |  |  |  |  |  |  | % MLR (percentage of positive control) ([2]; 0.05 μg/ml): 120%; % MLR (percentage of positive control) ([2]; 0.2 μg/ml): 0%; % MLR (percentage of positive control) ([2]; 0.8 μg/ml): 0%; % MLR (percentage of positive control) ([2]; 3.1 μg/ml): 0%; % MLR (percentage of positive control) ([2]; 12.5 μg/ml): 0%; % MLR (percentage of positive control) ([2]; 50 μg/ml): 0%
3 | 100 (≈ 299 µM) | C#CC(/C=C/CCCCCCCCCCCCCCC)OC(C)=O (stereo not shown) [CH3 (CH2)14 CH=CH--CHOAc--C≡CH] |  |  |  |  |  |  |  | 58 | 53 | 30 | 30 | 23 | 11 | 73 | 0 | 0 | 0 | 0 | 0 | 
4 | 200 (≈ 652 µM) | CC#CC(O)/C=C/CCCCCCCCCCCCCCC (stereo not shown) [CH3 (CH2)14 CH=CH--CHOH--C≡C--CH3] |  |  |  |  |  |  |  | 154 | 107 | 75 | 86 | 67 | 60 | 137 | 143 | 83 | 0 | 0 | 0 | 
5 | 15.1 (≈ 56.7 µM) | CCCCCCCCCCCCCCC/C=C/C=O [CH3 (CH2)14 CH=CH--CHO] |  |  |  |  |  |  |  | 130 | 175 | 181 | 186 | 89 | 5 | 150 | 105 | 135 | 146 | 0 | 0 | 
6 | 67 (≈ 219 µM) | C#CC(C)(O)/C=C/CCCCCCCCCCCCCCC (stereo not shown) [CH3 (CH2)14 CH=CH--COH(CH3)--C≡CH] |  |  |  |  |  |  |  | 53 | 107 | 118 | 109 | 54 | 5 | 152 | 161 | 171 | 115 | 65 | 0 | 
7 | 44 (≈ 183 µM) | CCCCCCCCCCCCCCCC=O [CH3 (CH2)14 CHO] |  |  |  |  |  |  |  | 237 | 182 | 161 | 202 | 153 | 132 | 59 | 94 | 80 | 73 | 36 | 0 | 
8 | 48 (≈ 163 µM) | C#CC(O)CCCCCCCCCCCCCCCCC (stereo not shown) [CH3 (CH2)16 CHOH--C≡CH] |  |  |  |  |  |  |  | 61 | 68 | 39 | 56 | 7 | 2 | 0 | 0 | 0 | 0 | 0 | 0 | 
9 |  | C#CC(O)C=CCCCCCCCCCCCCCCCCCCC (stereo not shown) [CH3 (CH2)18 CH=CH--CHOH--C≡CH] | 58 | 70 | 61 | 28 | 30 | 39 | 219 |  |  |  |  |  |  |  |  |  |  |  |  | % MLR (percentage of positive control) ([2]; 0.05 μg/ml): 103%; % MLR (percentage of positive control) ([2]; 0.2 μg/ml): 103%; % MLR (percentage of positive control) ([2]; 0.8 μg/ml): 0%; % MLR (percentage of positive control) ([2]; 3.1 μg/ml): 0%; % MLR (percentage of positive control) ([2]; 12.5 μg/ml): 0%; % MLR (percentage of positive control) ([2]; 50 μg/ml): 0%

Row | SMILES | IC50 (P388 cells) [µg/mL] | % LCV (percentage of positive control) ([1]; 0.05 μg/ml) [%] | % LCV (percentage of positive control) ([1]; 0.2 μg/ml) [%] | % LCV (percentage of positive control) ([1]; 0.8 μg/ml) [%] | % LCV (percentage of positive control) ([1]; 3.1 μg/ml) [%] | % LCV (percentage of positive control) ([1]; 12.5 μg/ml) [%] | % LCV (percentage of positive control) ([1]; 50 μg/ml) [%] | P388 IC50 (P388 cells) [µg/mL] | viability ([3]; 0.05 μg/ml) [%] | viability ([3]; 0.2 μg/ml) [%] | viability ([3]; 0.8 μg/ml) [%] | viability ([3]; 3.1 μg/ml) [%] | viability ([3]; 12.5 μg/ml) [%] | viability ([3]; 50 μg/ml) [%] | activity at 0.05 µg/mL ([2]; 0.05 μg/ml) [%] | activity at 0.2 µg/mL ([2]; 0.2 μg/ml) [%] | activity at 0.8 µg/mL ([2]; 0.8 μg/ml) [%] | activity at 3.1 µg/mL ([2]; 3.1 μg/ml) [%] | activity at 12.5 µg/mL ([2]; 12.5 μg/ml) [%] | activity at 50 µg/mL ([2]; 50 μg/ml) [%] | further results
10 | CCCCCCCCCCCCCCC/C=C/C(O)C#N (stereo not shown) [CH3 (CH2)14 CH=CH--CHOH--C≡N] | 28 (≈ 95.4 µM) |  |  |  |  |  |  |  | 132 | 135 | 161 | 144 | 77 | 37 | 60 | 89 | 85 | 80 | 0 | 0 | 
